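Assay format: 96-well plates, 48-hour exposure. GI50: concentration for 50% inhibition of growth. TGI marks complete inhibition of growth.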
Columns and labels:
Assay in all cases: DTP human tumour cell line panel, 48 h
HOP-92 NSCLC = system: HOP-92 NSCLC
SK-MEL-28 melanoma = system: SK-MEL-28 melanoma
COLO 205 colon = system: COLO 205 colon
K-562 leukemia = system: K-562 leukemia
A549 NSCLC = system: A549 NSCLC
SNB-75 CNS = system: SNB-75 CNS
IGROV1 ovarian = system: IGROV1 ovarian
HOP-62 NSCLC = system: HOP-62 NSCLC
SNB-19 CNS = system: SNB-19 CNS
MDA-MB-231 breast = system: MDA-MB-231 breast
CAKI-1 renal = system: CAKI-1 renal
CCRF-CEM leukemia = system: CCRF-CEM leukemia
A498 renal = system: A498 renal
TK-10 renal = system: TK-10 renal
HT29 colon = system: HT29 colon
SK-MEL-5 melanoma = system: SK-MEL-5 melanoma
UACC-257 melanoma = system: UACC-257 melanoma
MALME-3M melanoma = system: MALME-3M melanoma
OVCAR-8 ovarian = system: OVCAR-8 ovarian
UO-31 renal = system: UO-31 renal
ACHN renal = system: ACHN renal
UACC-62 melanoma = system: UACC-62 melanoma
OVCAR-4 ovarian = system: OVCAR-4 ovarian
RXF 393 renal = system: RXF 393 renal
MOLT-4 leukemia = system: MOLT-4 leukemia
SF-268 CNS = system: SF-268 CNS
EKVX NSCLC = system: EKVX NSCLC
PC-3 prostate = system: PC-3 prostate
SF-295 CNS = system: SF-295 CNS
NCI-H522 lung = system: NCI-H522 lung
DU-145 prostate = system: DU-145 prostate
T-47D breast = system: T-47D breast
SF-539 CNS = system: SF-539 CNS
HL-60(TB) leukemia = system: HL-60(TB) leukemia
LOX IMVI melanoma = system: LOX IMVI melanoma
OVCAR-5 ovarian = system: OVCAR-5 ovarian
SR leukemia = system: SR leukemia
SN12C renal = system: SN12C renal
KM12 colon = system: KM12 colon
NCI-H226 lung = system: NCI-H226 lung
SK-OV-3 ovarian = system: SK-OV-3 ovarian
RPMI-8226 leukemia = system: RPMI-8226 leukemia
NCI-H23 lung = system: NCI-H23 lung
HCC-2998 colon = system: HCC-2998 colon
MDA-MB-435 = system: MDA-MB-435
SK-MEL-2 melanoma = system: SK-MEL-2 melanoma
HS 578T breast = system: HS 578T breast

SMILES: O=C(/C=C/c1ccccc1Cl)c1nc2ccccc2n1Cc1ccc(F)cc1
- GI50 (HOP-92 NSCLC): 16.4 µM
- TGI (HOP-92 NSCLC): 62.8 µM
- GI50 (SK-MEL-28 melanoma): 2.75 µM
- TGI (SK-MEL-28 melanoma): 7.72 µM
- GI50 (COLO 205 colon): 4.01 µM
- TGI (COLO 205 colon): > 100 µM
- GI50 (K-562 leukemia): 3.3 µM
- TGI (K-562 leukemia): > 100 µM
- GI50 (A549 NSCLC): 8.06 µM
- TGI (A549 NSCLC): > 100 µM
- GI50 (SNB-75 CNS): 3.3 µM
- TGI (SNB-75 CNS): > 100 µM
- GI50 (IGROV1 ovarian): 3.33 µM
- TGI (IGROV1 ovarian): > 100 µM
- GI50 (HOP-62 NSCLC): 5.03 µM
- TGI (HOP-62 NSCLC): 41.9 µM
- GI50 (SNB-19 CNS): 3.99 µM
- TGI (SNB-19 CNS): 70 µM
- GI50 (MDA-MB-231 breast): 2.59 µM
- TGI (MDA-MB-231 breast): 6.68 µM
- GI50 (CAKI-1 renal): 3.47 µM
- TGI (CAKI-1 renal): > 100 µM
- GI50 (CCRF-CEM leukemia): 2.45 µM
- TGI (CCRF-CEM leukemia): > 100 µM
- GI50 (A498 renal): 61.8 µM
- TGI (A498 renal): > 100 µM
- GI50 (TK-10 renal): 6.22 µM
- TGI (TK-10 renal): > 100 µM
- GI50 (HT29 colon): 3.64 µM
- TGI (HT29 colon): > 100 µM
- GI50 (SK-MEL-5 melanoma): 5.23 µM
- TGI (SK-MEL-5 melanoma): > 100 µM
- GI50 (UACC-257 melanoma): 8.88 µM
- TGI (UACC-257 melanoma): > 100 µM
- GI50 (MALME-3M melanoma): 8.22 µM
- TGI (MALME-3M melanoma): 70.2 µM
- GI50 (OVCAR-8 ovarian): 3.25 µM
- TGI (OVCAR-8 ovarian): > 100 µM
- GI50 (UO-31 renal): 2.58 µM
- TGI (UO-31 renal): 11.2 µM
- GI50 (ACHN renal): 5.23 µM
- TGI (ACHN renal): > 100 µM
- GI50 (UACC-62 melanoma): 3.42 µM
- TGI (UACC-62 melanoma): 17.9 µM
- GI50 (OVCAR-4 ovarian): 23 µM
- TGI (OVCAR-4 ovarian): > 100 µM
- GI50 (RXF 393 renal): 2.06 µM
- TGI (RXF 393 renal): 5.35 µM
- GI50 (MOLT-4 leukemia): 3.04 µM
- TGI (MOLT-4 leukemia): > 100 µM
- GI50 (SF-268 CNS): 8.56 µM
- TGI (SF-268 CNS): > 100 µM
- GI50 (EKVX NSCLC): 6.44 µM
- TGI (EKVX NSCLC): > 100 µM
- GI50 (PC-3 prostate): 4.45 µM
- TGI (PC-3 prostate): > 100 µM
- GI50 (SF-295 CNS): 5.01 µM
- TGI (SF-295 CNS): 25.1 µM
- GI50 (NCI-H522 lung): 4.49 µM
- TGI (NCI-H522 lung): > 100 µM
- GI50 (DU-145 prostate): 4.61 µM
- TGI (DU-145 prostate): > 100 µM
- GI50 (T-47D breast): 3.44 µM
- TGI (T-47D breast): > 100 µM
- GI50 (SF-539 CNS): 2.33 µM
- TGI (SF-539 CNS): 5.67 µM
- GI50 (HL-60(TB) leukemia): 2.51 µM
- TGI (HL-60(TB) leukemia): > 100 µM
- GI50 (LOX IMVI melanoma): 1.65 µM
- TGI (LOX IMVI melanoma): 3.23 µM
- GI50 (OVCAR-5 ovarian): 3.76 µM
- TGI (OVCAR-5 ovarian): 73.1 µM
- GI50 (SR leukemia): 2.87 µM
- TGI (SR leukemia): > 100 µM
- GI50 (SN12C renal): 20.1 µM
- TGI (SN12C renal): > 100 µM
- GI50 (KM12 colon): 3.34 µM
- TGI (KM12 colon): > 100 µM
- GI50 (NCI-H226 lung): 25.4 µM
- TGI (NCI-H226 lung): > 100 µM
- GI50 (SK-OV-3 ovarian): 32.5 µM
- TGI (SK-OV-3 ovarian): > 100 µM
- GI50 (RPMI-8226 leukemia): 2.97 µM
- TGI (RPMI-8226 leukemia): > 100 µM
- GI50 (NCI-H23 lung): 4.25 µM
- TGI (NCI-H23 lung): > 100 µM
- GI50 (HCC-2998 colon): 3.16 µM
- TGI (HCC-2998 colon): 55.8 µM
- GI50 (MDA-MB-435): 2.37 µM
- TGI (MDA-MB-435): 5.92 µM
- GI50 (SK-MEL-2 melanoma): 13.4 µM
- TGI (SK-MEL-2 melanoma): > 100 µM
- GI50 (HS 578T breast): 4.51 µM
- TGI (HS 578T breast): 58.6 µM
